Experimental findings from patent US20150259300A1, “4-(ORTHO)-FLUOROPHENYL-5-FLUOROPYRIMIDIN-2-YL AMINES CONTAINING A SULFONE GROUP” (BAYER PHARMA AKTIENGESELLSCHAFT, priority 2012, published 2015) are described below.

For assay [1], the target named is T1, CDK9/CycT1 (Homo sapiens, UniProt P50750).
T1 construct: Recombinant full-length His-tagged human CDK9 and CycT1; His; purchased Invitrogen PV4131; host or cells: insect cells
Put plainly: CDK9/CycT1 kinase assay (TR-FRET, Method 1a). The format is biochemical. The settings on record: for IC50: Method 1a, 10 μM ATP; for Selectivity CDK9/CDK2: derived from Methods 1a. and 2. The source says: 1a. CDK9/CyeT1 Kinase Assay:
CDK9/CycT1-inhibitory activity of compounds of the present invention was quantified employing the CDK9/CycT1 TR-FRET assay as described in the following paragraphs:
Recombinant full-length His-tagged human CDK9 and CycT1, expressed in insect cells and purified by Ni-NTA affinity chromatography, were purchased from Invitrogen (Cat. No PV4131). As substrate for the kinase reaction biotinylated peptide biotin-Ttds-YISPLKSPYKISEG (C-terminus in amid form) was used which can be purchased e.g. form the company JERINI Peptide Technologies (Berlin, Germany). For the assay 50 nl of a 100 fold concentrated solution of the test compound in DMSO was pipetted into a black low volume 384 well microtiter plate (Greiner Bio-One, Frickenhausen, Germany), 2 μl of a solution of CDK9/CycT1 in aqueous assay buffer [50 mM Tris/HCl pH 8.0, 10 mM MgCl2, 1.0 mM dithiothreitol, 0.1 mM sodium ortho-vanadate, 0.01% (v/v) Nonidet-P40 (Sigma)] were added and the mixture was incubated for 15 min at 22° C. to allow pre-binding of the test compounds to the enzyme before the start of the kinase reaction. Then the kinase reaction was started by the addition of 3 μl of a solution of adenosine-tri-phosphate (ATP, 16.7 μM=>final conc. in the 5 μl assay volume is 10 μM) and substrate (1.67 μM=>final conc. in the 5 μl assay volume is 1 μM) in assay buffer and the resulting mixture was incubated for a reaction time of 25 min at 22° C. The concentration of CDK9/CycT1 was adjusted depending of the activity of the enzyme lot and was chosen appropriate to have the assay in the linear range, typical concentrations were in the range of 1 μg/ml. The reaction was stopped by the addition of 5 μl of a solution of TR-FRET detection reagents (0.2 μM streptavidine-XL665 [Cisbio Bioassays, Codolet, France] and 1 nM anti-RB(pSer807/pSer811)-antibody from BD Pharmingen [#558389] and 1.2 nM LANCE EU-W1024 labeled anti-mouse IgG antibody [Perkin-Elmer, product no. AD0077]) in an aqueous EDTA-solution (100 mM EDTA, 0.2% (w/v) bovine serum albumin in 100 mM HEPES/NaOH pH 7.0).
(§1) The resulting mixture was incubated 1 h at 22° C. to allow the formation of complex between the phosphorylated biotinylated peptide and the detection reagents. Subsequently the amount of phosphorylated substrate was evaluated by measurement of the resonance energy transfer from the Eu-chelate to the streptavidine-XL. Therefore, the fluorescence emissions at 620 nm and 665 nm after excitation at 350 nm was measured in a HTRF reader, e.g. a Rubystar (BMG Labtechnologies, Offenburg, Germany) or a Viewlux (Perkin-Elmer). The ratio of the emissions at 665 nm and at […] was taken as the measure for the amount of phosphorylated substrate. The data were normalised (enzyme reaction without inhibitor=0% inhibition, all other assay components but no enzyme=100% inhibition).

The target of the next assay is T2, CDK2/CycE (Homo sapiens, UniProt P24941).
T2 construct: GST; purchased ProQinase GmbH (Freiburg, Germany); host or cells: insect cells (Sf9)
The assay can be described thus: CDK2/CycE kinase assay (TR-FRET, Method 2). The format is biochemical. Conditions: Method 2, 10 μM ATP.
From the text: 2. CDK2/CycE Kinase Assay:
CDK2/CycE -inhibitory activity of compounds of the present invention was quantified employing the CDK2/CycE TR-FRET assay as described in the following paragraphs:
Recombinant fusion proteins of GST and human CDK2 and of GST and human CycE, expressed in insect cells (Sf9) and purified by Glutathion-Sepharose affinity chromatography, were purchased from ProQinase GmbH (Freiburg, Germany). As substrate for the kinase reaction biotinylated peptide biotin-Ttds-YISPLKSPYKISEG (C-terminus in amid form) was used which can be purchased e.g. form the company JERINI Peptide Technologies (Berlin, Germany).
(§2) For the assay 50 nl of a 100 fold concentrated solution of the test compound in DMSO was pipetted into a black low volume 384 well microtiter plate (Greiner Bio-One, Frickenhausen, Germany), 2 μl of a solution of CDK2/CycE in aqueous assay buffer [50 mM Tris/HCl pH 8.0, 10 mM MgCl2, 1.0 mM dithiothreitol, 0.1 mM sodium ortho-vanadate, 0.01% (v/v) Nonidet-P40 (Sigma)] were added and the mixture was incubated for […] at 22° C. to allow pre-binding of the test compounds to the enzyme before the start of the kinase reaction. Then the kinase reaction was started by the addition of 3 μl of a solution of adenosine-tri-phosphate (ATP, 16.7 μM=>final conc. in the 5 μl assay volume is 10 μM) and substrate (1.25 μM=>final conc. in the 5 μl assay volume is 0.75 μM) in assay buffer and the resulting mixture was incubated for a reaction time of […] at 22° C. The concentration of CDK2/CycE was adjusted depending of the activity of the enzyme lot and was chosen appropriate to have the assay in the linear range, typical concentrations were in the range of 130 ng/ml. The reaction was stopped by the addition of 5 μl of a solution of TR-FRET detection reagents (0.2 μM streptavidine-XL665 [Cisbio Bioassays, Codolet, France] and 1 nM anti-RB(pSer807/pSer811)-antibody from BD Pharmingen [#558389] and 1.2 nM LANCE EU-W1024 labeled anti-mouse IgG antibody [Perkin-Elmer, product no. AD0077]) in an aqueous EDTA-solution (100 mM EDTA, 0.2% (w/v) bovine serum albumin in 100 mM HEPES/NaOH pH 7.0).
as §1, with “TR-FRET” for “HTRF”
Background: In TR-FRET formats the signal depends on donor and acceptor labels being close together.

A further assay has as its system HeLa cells. The assay can be described thus: Proliferation assay (crystal violet), HeLa. In kind it is cell-based. Conditions: Homo sapiens, 96 h, 4 days, read-out: Inhibition of HeLa cell proliferation IC50. Here is the method: Cultivated tumour cells (HeLa, human cervical tumour cells, ATCC CCL-2; NCI-H460, human non-small cell lung carcinoma cells, ATCC HTB-177; A2780, human ovarian carcinoma cells, ECACC #93112519; DU 145, hormone-independent human prostate carcinoma cells, ATCC HTB-81; HeLa-MaTu-ADR, multidrug-resistant human cervical carcinoma cells, EPO-GmbH Berlin; Caco-2, human colorectal carcinoma cells, ATCC HTB-37; B 16F10, mouse melanoma cells, ATCC CRL-6475) were plated at a density of 5,000 cells/well (DU145, HeLa-MaTu-ADR), 3,000 cells/well (NCI-H460, HeLa), 2,500 cells/well (A2780), 1,500 cells/well (Caco-2), or 1,000 cells/well (B16F10) in a 96-well multititer plate in 200 μL of their respective growth medium supplemented 10% fetal calf serum. After 24 hours, the cells of one plate (zero-point plate) were stained with crystal violet (see below), while the medium of the other plates was replaced by fresh culture medium (200 to which the test substances were added in various concentrations (0 μM, as well as in the range of 0.001-10 μM; the final concentration of the solvent dimethyl sulfoxide was 0.5%). The cells were incubated for 4 days in the presence of test substances. Cell proliferation was determined by staining the cells with crystal violet: the cells were fixed by adding 20 μl/measuring point of an 11% glutaric aldehyde solution for 15 minutes at room temperature. After three washing cycles of the fixed cells with water, the plates were dried at room temperature. The cells were stained by adding 100 μl/measuring point of a 0.1% crystal violet solution (pH 3.0). After three washing cycles of the stained cells with water, the plates were dried at room temperature. The dye was dissolved by adding 100 μl/measuring point of a 10% acetic acid solution. The extinction was determined by photometry at a wavelength of 595 nm. The change of cell number, in percent, was calculated by normalization of the measured values to the extinction values of the zero-point plate (=0%) and the extinction of the untreated (0 μm) cells (=100%). The IC50 values (inhibitory concentration at 50% of maximal effect) were determined by means of a 4 parameter fit.

The target of assay [2] is T1, CDK9/CycT1. The assay can be described thus: CDK9/CycT1 high ATP kinase assay (TR-FRET, Method 1b). In kind it is biochemical. Conditions: 2 mM ATP. As to the method: 1b. CDK9/CyeT1 High ATP Kinase Assay
CDK9/CycT1-inhibitory activity of compounds of the present invention at a high ATP concentration after preincubation of enzyme and test compounds was quantified employing the CDK9/CycT1 TR-FRET assay as described in the following paragraphs.
Recombinant full-length His-tagged human CDK9 and CycT1, expressed in insect cells and purified by Ni-NTA affinity chromatography, were purchase from Invitrogen (Cat. No PV4131). As substrate for the kinase reaction biotinylated peptide biotin-Ttds-YISPLKSPYKISEG (C-terminus in amid form) was used which can be purchased e.g. form the company JERINI peptide technologies (Berlin, Germany).
as §2, with “of CDK9/CycT1” for “of CDK2/CycE”, “(ATP, 3.3 mM=>final conc. in the 5 μl assay volume is 2 mM) and substrate (1.67” for “(ATP, 16.7”, “is 1” for “is 10 μM) and substrate (1.25 μM=>final conc. in the 5 μl assay volume is 0.75”, “of 0.5” for “of 130”, “([…]” for “(0.2 μM”
as §1

A value given as a limit tells only on which side of the number the result lay.

T1 sequence (P50750 whole entry): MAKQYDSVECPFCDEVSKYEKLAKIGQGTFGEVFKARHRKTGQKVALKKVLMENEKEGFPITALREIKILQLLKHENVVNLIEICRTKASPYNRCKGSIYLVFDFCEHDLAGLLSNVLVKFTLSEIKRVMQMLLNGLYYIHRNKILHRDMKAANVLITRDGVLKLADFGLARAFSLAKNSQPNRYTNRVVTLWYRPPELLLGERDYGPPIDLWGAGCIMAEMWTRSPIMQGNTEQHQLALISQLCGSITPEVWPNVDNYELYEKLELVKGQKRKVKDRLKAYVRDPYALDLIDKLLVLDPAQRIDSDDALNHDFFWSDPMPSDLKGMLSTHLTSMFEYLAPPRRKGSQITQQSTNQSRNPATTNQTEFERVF
T1 sequence (O60563 whole entry partner): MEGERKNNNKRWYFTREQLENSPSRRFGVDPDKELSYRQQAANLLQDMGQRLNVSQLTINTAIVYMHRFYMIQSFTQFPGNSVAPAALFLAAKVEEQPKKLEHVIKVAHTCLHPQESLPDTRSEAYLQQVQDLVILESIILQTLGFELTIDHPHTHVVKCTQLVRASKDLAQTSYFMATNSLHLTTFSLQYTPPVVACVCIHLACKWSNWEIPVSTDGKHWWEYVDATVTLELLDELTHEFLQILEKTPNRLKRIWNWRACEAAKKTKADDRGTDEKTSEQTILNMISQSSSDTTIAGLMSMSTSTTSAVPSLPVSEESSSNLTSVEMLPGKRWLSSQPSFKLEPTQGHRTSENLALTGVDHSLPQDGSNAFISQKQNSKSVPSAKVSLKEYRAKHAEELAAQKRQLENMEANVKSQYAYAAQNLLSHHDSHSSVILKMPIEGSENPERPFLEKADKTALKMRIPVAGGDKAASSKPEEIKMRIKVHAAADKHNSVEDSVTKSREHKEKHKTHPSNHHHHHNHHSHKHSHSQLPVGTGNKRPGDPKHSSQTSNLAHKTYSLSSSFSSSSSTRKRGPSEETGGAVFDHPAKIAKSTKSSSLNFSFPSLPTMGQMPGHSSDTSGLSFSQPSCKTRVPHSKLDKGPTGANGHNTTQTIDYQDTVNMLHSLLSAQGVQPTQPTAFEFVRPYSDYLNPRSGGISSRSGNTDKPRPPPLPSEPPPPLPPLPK

For the compound `CS(=O)(=O)Cc1cc(Nc2ncc(F)c(-c3ccc(F)cc3F)n2)cc(C(F)(F)F)c1` [Example 1, 4-(2,4-Difluorophenyl)-5-fluoro-N-{3-[(methylsulfonyl)methyl]-5-(trifluoromethyl)phenyl}pyrimidin-2-amine], the IC50 was 0.02 µM on CDK9/CycT1 [1], > 20 µM against CDK2/CycE and 1.05 µM in the assay on HeLa cells. For the same compound, the “Selectivity CDK9/CDK2” value on CDK9/CycT1 [1] was >1000.
For `CCS(=O)(=O)Cc1cccc(Nc2ncc(F)c(-c3ccc(F)cc3F)n2)c1` [Example 7, 4-(2,4-Difluorophenyl)-N-{3-[(ethylsulfonyl)methyl]phenyl}-5-fluoropyrimidin-2-amine] the same measures were 0.04 µM, 0.36 µM, 2.24 µM and 8.9.
For the compound `CCCS(=O)(=O)Cc1cc(F)cc(Nc2ncc(F)c(-c3cc(F)c(F)cc3F)n2)c1` [Example 14, 5-Fluoro-N-{3-fluoro-5-[(propylsulfonyl)methyl]phenyl}-4-(2,4,5-trifluorophenyl)pyrimidin-2-amine], the IC50 is > 20 µM against CDK9/CycT1 [2], > 20 µM against CDK2/CycE and 3 µM in the assay on HeLa cells.
